For the experiment, the system named is Aβ42. The experiment is described as follows: Aβ42 IC50 assay (SHSYSY-APP cell-based screening, UCSD sandwich Aβ42 ELISA). From the text: FIG. 8: Representative concentration response curves of Compound 1 using our primary and orthogonal medium throughput SHSYSY-APP cell-based screening assays (10). Compounds are first screened two times in triplicate in our UCSD sandwich Aβ42 ELISA on sequential days and the average of the two assays must be within 3-fold of each other before being entered into the CDD relational database. The UCSD sandwich ELISA assay can easily handle 20 compounds per week. Compounds with Aβ42 IC50 values <100 nM continue through the testing funnel. The Z′ score and the % CV for the UCSD Aβ42 sandwich ELISA assay are 0.8 and 4, respectively. For the Meso Scale triplex assay the Z′ scores are 0.7, 0.9 and 0.6 Aβ42, Aβ40 and Aβ38, respectively and the % CV's are 7, 2 and 1 for Aβ42, Aβ40 and Aβ38, respectively. Aβ total peptides are measured using a sandwich ELISA.
Tabular Results of A1142 Assays Conducted on Compounds of Examples 5-102. Assays are Aβ42 IC50 (nM).

The IC50 is the concentration needed to halve the response being measured. Higher therefore signals lower potency.

`COc1nc(-c2cc(C)c(N[C@@H](C)C(C)C)nn2)ccc1-n1cnc(C)c1` [Example 61, (S)-6-(6-methoxy-5-(4-methyl-1H-imidazol-1-yl)pyridin-2-yl)-4-methyl-N-(3-methylbutan-2-yl)pyridazin-3-amine] gave an IC50 of 27 nM.
The same measure for `COc1nc(-c2cc(C)c(N[C@@H]3C[C@H]3c3ccc(F)c(F)c3)nn2)ccc1-n1cnc(C)c1` [Example 83, N-((1R,2S)-2-(3,4-difluorophenyl)cyclopropyl)-6-(6-methoxy-5-(4-methyl-1H-imidazol-1-yl)pyridin-2-yl)-4-methylpyridazin-3-amine]: 27 nM; for `CCc1cc(-c2ccc(-n3cnc(C)c3)c(OC)n2)nnc1N[C@@H](C)c1ccc(F)cc1` [Example 5, (S)-4-Ethyl-N-(1-(4-fluorophenyl)ethyl)-6-(6-methoxy-5-(4-methyl-1H-imidazol-1-yl)pyridin-2-yl)pyridazin-3-amine]: 7.8 nM; for `COC[C@H](Nc1nnc(-c2ccc(-n3cnc(C)c3)c(OC)n2)cc1C)c1ccc(F)cc1` [Example 87, (R)—N-(1-(4-fluorophenyl)-2-methoxyethyl)-6-(6-methoxy-5-(4-methyl-1H-imidazol-1-yl)pyridin-2-yl)-4-methylpyridazin-3-amine]: 11.5 nM.
In the case of `COc1nc(-c2cc(C)c(N[C@@H](C)c3ccc(F)c(F)c3)nn2)ccc1-n1cnc(C)c1` [Example 39, (S)—N-(1-(3,4-difluorophenyl)ethyl)-6-(6-methoxy-5-(4-methyl-1H-imidazol-1-yl)pyridin-2-yl)-4-methylpyridazin-3-amine] it was 6.5 nM; in that of `COc1nc(-c2cc(C)c(N[C@@H](C)c3ccc(C(F)(F)F)cc3)nn2)ccc1-n1cnc(C)c1` [Example 37, (S)-6-(6-methoxy-5-(4-methyl-1H-imidazol-1-yl)pyridin-2-yl)-4-methyl-N-(1-(4-(trifluoromethyl)phenyl)ethyl)pyridazin-3-amine], 6.3 nM.
As for `COc1nc(-c2cc(C)c(NC3(c4ccc(F)cc4)CC3)nn2)ccc1-n1cnc(C)c1` [Example 60, N-(1-(4-fluorophenyl)cyclopropyl)-6-(6-methoxy-5-(4-methyl-1H-imidazol-1-yl)pyridin-2-yl)-4-methylpyridazin-3-amine], the 50% inhibitory concentration (IC50) stood at 12 nM.
The same measure for `COc1nc(-c2cc(C)c(N[C@@H](C)c3ccccn3)nn2)ccc1-n1cnc(C)c1` [Example 67, (S)-6-(6-methoxy-5-(4-methyl-1H-imidazol-1-yl)pyridin-2-yl)-4-methyl-N-(1-(pyridin-2-yl)ethyl)pyridazin-3-amine]: 95 nM.
The same measure for `COc1nc(-c2cc(C)c(NC3CC3)nn2)ccc1-n1cnc(C)c1` [Example 70, N-cyclopropyl-6-(6-methoxy-5-(4-methyl-1H-imidazol-1-yl)pyridin-2-yl)-4-methylpyridazin-3-amine]: 425 nM; for `COc1nc(-c2cc(C)c(N[C@@H](C)c3cccc(C(F)(F)F)c3F)nn2)ccc1-n1cnc(C)c1` [Example 101, (S)—N-(1-(2-fluoro-3-(trifluoromethyl)phenyl)ethyl)-6-(6-methoxy-5-(4-methyl-1H-imidazol-1-yl)pyridin-2-yl)-4-methylpyridazin-3-amine]: 5 nM; for `COc1nc(-c2nnc(NCc3ccc(F)cc3)c(C)c2C)ccc1-n1cnc(C)c1` [Example 18, N-(4-fluorobenzyl)-6-(6-methoxy-5-(4-methyl-1H-imidazol-1-yl)pyridin-2-yl)-4,5-dimethylpyridazin-3-amine]: 82 nM.
In the case of `CCN(c1nnc(-c2ccc(-n3cnc(C)c3)c(OC)n2)cc1C)[C@@H](C)c1ccc(F)cc1` [Example 20, (S)—N-ethyl-N-(1-(4-fluorophenyl)ethyl)-6-(6-methoxy-5-(4-methyl-1H-imidazol-1-yl)pyridin-2-yl)-4-methylpyridazin-3-amine] it was 132 nM.
`COc1nc(-c2cc(C)c(N[C@@H](C)c3ccccc3C(F)(F)F)nn2)ccc1-n1cnc(C)c1` [Example 56, (S)-6-(6-methoxy-5-(4-methyl-1H-imidazol-1-yl)pyridin-2-yl)-4-methyl-N-(1-(2-(trifluoromethyl)phenyl)ethyl)pyridazin-3-amine]: the IC50 came to 3 nM.
`COc1nc(-c2cc(C)c(N[C@@H](C)c3cccc(C(F)(F)F)c3)nn2)ccc1-n1cnc(C)c1` [Example 49, (S)-6-(6-methoxy-5-(4-methyl-1H-imidazol-1-yl)pyridin-2-yl)-4-methyl-N-(1-(3-(trifluoromethyl)phenyl)ethyl)pyridazin-3-amine] returned an IC50 of 7 nM.
The same measure for `COc1nc(-c2nnc(N[C@@H](C)c3ccc(F)cc3)c(C)c2C)ccc1-n1cnc(C)c1` [Example 15, (S)—N-(1-(4-Fluorophenyl)ethyl)-6-(6-methoxy-5-(4-methyl-1H-imidazol-1-yl)pyridin-2-yl)-4,5-dimethylpyridazin-3-amine]: 67 nM; for `COc1nc(-c2cc(C)c(N[C@@H](C)c3ccncc3)nn2)ccc1-n1cnc(C)c1` [Example 59, (S)-6-(6-methoxy-5-(4-methyl-1H-imidazol-1-yl)pyridin-2-yl)-4-methyl-N-(1-(pyridin-4-yl)ethyl)pyridazin-3-amine]: 778 nM; for `CC[C@H](C)Nc1nnc(-c2ccc(-n3cnc(C)c3)c(OC)n2)cc1C` [Example 63, (S)—N-(sec-butyl)-6-(6-methoxy-5-(4-methyl-1H-imidazol-1-yl)pyridin-2-yl)-4-methylpyridazin-3-amine]: 79 nM.
In the case of `CCc1cc(-c2ccc(-n3cnc(C)c3)c(OC)n2)nnc1N[C@H](C)c1ccccc1` [Example 9, (R)-4-ethyl-6-(6-methoxy-5-(4-methyl-1H-imidazol-1-yl)pyridin-2-yl)-N-(1-phenylethyl)pyridazin-3-amine] it was 46 nM; in that of `COc1nc(-c2cc(C)c(N[C@@H](C)c3ccc(C#N)cc3)nn2)ccc1-n1cnc(C)c1` [Example 77, (S)-4-(1-((6-(6-methoxy-5-(4-methyl-1H-imidazol-1-yl)pyridin-2-yl)-4-methylpyridazin-3-yl)amino)ethyl)benzonitrile], 27 nM.
In the case of `CC[C@H](Nc1nnc(-c2ccc(-n3cnc(C)c3)c(OC)n2)cc1C)c1ccccc1F` [Example 88, (S)—N-(1-(2-fluorophenyl)propyl)-6-(6-methoxy-5-(4-methyl-1H-imidazol-1-yl)pyridin-2-yl)-4-methylpyridazin-3-amine] it was 12 nM.
`COc1nc(-c2nnc(N[C@@H](C)c3ccc(F)cc3)cc2C)ccc1-n1cnc(C)c1` [Example 27, (S)—N-(1-(4-fluorophenyl)ethyl)-6-(6-methoxy-5-(4-methyl-1H-imidazol-1-yl)pyridin-2-yl)-5-methylpyridazin-3-amine]: inhibition was half-maximal at 21 nM (IC50).
In the case of `COc1nc(-c2cc(C)c(N[C@H](c3ccc(F)cc3)C(C)C)nn2)ccc1-n1cnc(C)c1` [Example 57, (S)—N-(1-(4-fluorophenyl)-2-methylpropyl)-6-(6-methoxy-5-(4-methyl-1H-imidazol-1-yl)pyridin-2-yl)-4-methylpyridazin-3-amine] it was 4 nM; in that of `CCc1cc(-c2ccc(-n3cnc(C)c3)c(OC)n2)nnc1NCc1ccc(F)cc1` [Example 8, 4-ethyl-N-(4-fluorobenzyl)-6-(6-methoxy-5-(4-methyl-1H-imidazol-1-yl)pyridin-2-yl)pyridazin-3-amine], 33 nM; in that of `CC[C@H](Nc1nnc(-c2ccc(-n3cnc(C)c3)c(OC)n2)cc1C)c1ccc(C#N)cc1` [Example 84, (S)-4-(1-((6-(6-methoxy-5-(4-methyl-1H-imidazol-1-yl)pyridin-2-yl)-4-methylpyridazin-3-yl)amino)propyl)benzonitrile], 23 nM.
In the case of `COc1nc(-c2cc(C)c(N[C@@H](C)c3ccccc3)nn2)ccc1-n1cnc(C)c1` [Example 35, (S)-6-(6-methoxy-5-(4-methyl-1H-imidazol-1-yl)pyridin-2-yl)-4-methyl-N-(1-phenylethyl)pyridazin-3-amine] it was 12 nM.
The same measure for `CCc1cc(-c2ccc(-n3cnc(C)c3)c(OC)n2)nnc1N[C@H](C)c1ccc(F)cc1` [Example 10, (R)-4-ethyl-N-(1-(4-fluorophenyl)ethyl)-6-(6-methoxy-5-(4-methyl-1H-imidazol-1-yl)pyridin-2-yl)pyridazin-3-amine]: 47.5 nM; for `COc1nc(-c2cc(C)c(N[C@H](C)c3ccccc3)nn2)ccc1-n1cnc(C)c1` [Example 68, (R)-6-(6-methoxy-5-(4-methyl-1H-imidazol-1-yl)pyridin-2-yl)-4-methyl-N-(1-phenylethyl)pyridazin-3-amine]: 80 nM; for `COc1nc(-c2cc(C)c(N[C@@H](C)c3cccc(Cl)c3)nn2)ccc1-n1cnc(C)c1` [Example 33, (S)—N-(1-(3-chlorophenyl)ethyl)-6-(6-methoxy-5-(4-methyl-1H-imidazol-1-yl)pyridin-2-yl)-4-methylpyridazin-3-amine]: 6.8 nM.
Consider `COc1nc(-c2cc(C)c(N[C@@H](C)c3ccc(F)cc3C(F)(F)F)nn2)ccc1-n1cnc(C)c1` [Example 82, (S)—N-(1-(4-fluoro-2-(trifluoromethyl)phenyl)ethyl)-6-(6-methoxy-5-(4-methyl-1H-imidazol-1-yl)pyridin-2-yl)-4-methylpyridazin-3-amine], for which the 50% inhibitory concentration (IC50) was found to be 3.5 nM.

The record behind these values is patent US10472346B2, “Potent gamma-secretase modulators” (The General Hospital Coporation, priority 2014, dated 2019).
